# Experimental data published in ChEMBL document CHEMBL1124016, “Antihypertensive activity in a series of 1-piperazino-3-phenylindans with potent 5-HT2-antagonistic activity” (J Med Chem, 1988).
# Assays:
# [1] = molecular target: D(2) dopamine receptor (Rattus norvegicus, UniProt P61169); assay: Inhibition of [3H]spiperone binding to Dopamine receptor D2 from rat striatal membranes; format: cell membranes, Membrane
# [2] = molecular target: T1, Adrenergic receptor alpha-1 (Rattus norvegicus, UniProt P15823+P23944+P43140); assay: Inhibition of [3H]prazosin binding to alpha-1 adrenergic receptor from rat cortical membranes; format: cell membranes, Membrane
# T1 sequence (P15823 whole entry): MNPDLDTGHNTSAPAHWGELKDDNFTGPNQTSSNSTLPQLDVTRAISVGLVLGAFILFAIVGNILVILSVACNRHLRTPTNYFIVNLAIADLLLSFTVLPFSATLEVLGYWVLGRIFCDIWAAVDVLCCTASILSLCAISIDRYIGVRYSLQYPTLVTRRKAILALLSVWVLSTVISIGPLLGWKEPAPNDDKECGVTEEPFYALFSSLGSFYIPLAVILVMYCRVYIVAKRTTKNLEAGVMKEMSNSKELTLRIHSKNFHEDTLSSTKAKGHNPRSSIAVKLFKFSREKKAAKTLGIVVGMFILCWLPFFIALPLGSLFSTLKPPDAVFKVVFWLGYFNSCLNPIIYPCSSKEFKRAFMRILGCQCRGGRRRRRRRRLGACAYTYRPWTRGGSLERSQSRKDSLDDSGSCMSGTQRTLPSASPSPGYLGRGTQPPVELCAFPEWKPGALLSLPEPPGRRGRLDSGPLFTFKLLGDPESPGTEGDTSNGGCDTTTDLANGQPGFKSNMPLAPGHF
# T1 sequence (P23944 whole entry): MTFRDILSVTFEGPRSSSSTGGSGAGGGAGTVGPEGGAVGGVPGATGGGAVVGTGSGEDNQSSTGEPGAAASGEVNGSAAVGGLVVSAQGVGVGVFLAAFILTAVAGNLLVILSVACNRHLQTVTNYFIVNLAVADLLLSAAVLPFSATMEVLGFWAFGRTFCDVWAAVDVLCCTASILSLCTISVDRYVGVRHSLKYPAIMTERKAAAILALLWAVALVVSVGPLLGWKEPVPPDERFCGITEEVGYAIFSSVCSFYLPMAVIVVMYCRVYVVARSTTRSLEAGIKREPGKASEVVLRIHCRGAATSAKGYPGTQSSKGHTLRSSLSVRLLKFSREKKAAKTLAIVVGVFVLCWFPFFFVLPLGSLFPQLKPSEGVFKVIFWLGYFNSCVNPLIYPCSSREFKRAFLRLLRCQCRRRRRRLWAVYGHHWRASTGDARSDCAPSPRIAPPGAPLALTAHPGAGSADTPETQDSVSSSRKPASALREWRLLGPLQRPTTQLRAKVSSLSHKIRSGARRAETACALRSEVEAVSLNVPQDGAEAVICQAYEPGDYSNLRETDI
# T1 sequence (P43140 whole entry): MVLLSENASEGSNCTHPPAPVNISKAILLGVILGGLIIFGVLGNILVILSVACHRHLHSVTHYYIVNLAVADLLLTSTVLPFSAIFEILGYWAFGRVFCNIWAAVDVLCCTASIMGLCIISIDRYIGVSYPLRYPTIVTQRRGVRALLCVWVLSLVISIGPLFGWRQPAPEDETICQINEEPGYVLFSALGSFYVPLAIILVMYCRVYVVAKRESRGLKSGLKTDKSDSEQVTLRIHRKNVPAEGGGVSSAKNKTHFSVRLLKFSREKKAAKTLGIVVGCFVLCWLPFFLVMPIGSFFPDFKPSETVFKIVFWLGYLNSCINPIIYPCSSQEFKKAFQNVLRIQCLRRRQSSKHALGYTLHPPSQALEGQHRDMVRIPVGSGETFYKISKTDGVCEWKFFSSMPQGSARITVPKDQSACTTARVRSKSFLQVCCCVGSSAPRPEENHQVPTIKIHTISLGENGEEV
# [3] = test system: Rattus norvegicus; assay: Percent reduction of blood pressure in spontaneously hypertensive rat after 10 min at intraperitoneal administration of 5 mg/kg; format: functional
# [4] = molecular target: Serotonin 2 (5-HT2) receptor (Rattus norvegicus, UniProt P30994+P08909+P14842); assay: Inhibition of [3H]spiperone binding to 5-hydroxytryptamine 2 receptor from rat cortical membranes; format: cell membranes, Membrane
# [5] = test system: Rattus norvegicus; assay: Inhibition of 5-HT induced pressor response in pithed rats, after intravenous administration of 0.02 mg/kg; format: functional
# [6] = test system: Rattus norvegicus; assay: Inhibition of phenylephrine induced pressor response in pithed rats (following i.v. administration of […]); format: functional; settings: route intravenous
# [7] = organism: Rattus norvegicus; assay: Inhibition of L-5-HTP (L-5-hydroxytryptophan) induced head twitches in rat; format: functional
# [8] = organism: Mus musculus; assay: Inhibition of methyl phenidate induced stereotyped gnawing in mice; format: functional
# [9] = Rattus norvegicus, read-out: ED50
# D(2) dopamine receptor, sequence (P61169 whole entry): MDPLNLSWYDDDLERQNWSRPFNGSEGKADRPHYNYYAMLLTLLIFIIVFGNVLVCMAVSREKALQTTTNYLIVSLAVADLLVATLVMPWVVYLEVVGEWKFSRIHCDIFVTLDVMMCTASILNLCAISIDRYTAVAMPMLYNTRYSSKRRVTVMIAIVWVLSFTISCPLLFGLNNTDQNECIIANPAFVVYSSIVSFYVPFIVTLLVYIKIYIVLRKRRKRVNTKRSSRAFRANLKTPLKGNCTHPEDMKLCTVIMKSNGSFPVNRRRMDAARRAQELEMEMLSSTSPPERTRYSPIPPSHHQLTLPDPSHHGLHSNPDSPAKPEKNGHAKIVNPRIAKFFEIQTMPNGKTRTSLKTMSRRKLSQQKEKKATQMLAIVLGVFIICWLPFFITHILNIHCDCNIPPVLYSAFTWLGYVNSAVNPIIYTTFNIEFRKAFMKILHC
IC50 [1],IC50 [2],IC50 [4],Compound,Reduction [3],Change [5],Change [6],"ED50 [7, 9]",ED50 [8],ED50 [7]
85 nM,36 nM,12 nM,Cl.Cl.O=C1CCCN1CCN1CCN(C2CC(c3ccc(F)cc3)c3ccc(F)cc32)CC1 (configuration not stated),0%,–,–,–,–,–
–,–,13 nM,CN1CCN(CCN2CCN(C3CC(c4ccc(F)cc4)c4ccccc43)CC2)C1=O.Cl.Cl.O (configuration not stated),-6%,–,–,–,> 80 µmol/kg,–
> 1000 nM,> 10000 nM,> 1000 nM,O=C1NCCN1CCN1CCN(Cc2ccccc2)CC1,15%,–,–,> 4.3 µmol/kg,> 139 µmol/kg,–
> 1000 nM,–,58000 nM,O=C1NCCN1CCN1CCN(C(=O)c2ccc(F)cc2)CC1,11%,–,–,1.8 µmol/kg,> 125 µmol/kg,–
30 nM,–,22 nM,Cl.Cl.O=C1OCCN1CCCN1CCN(C2CC(c3ccc(F)cc3)c3ccc(F)cc32)CC1 (configuration not stated),-12%,-32%,–,–,–,–
25 nM,34 nM,4.8 nM,CCN1CCN(CCN2CCN(C3CC(c4ccc(F)cc4)c4ccc(F)cc43)CC2)C1=O.Cl.Cl (configuration not stated),4%,–,–,–,> 75 µmol/kg,–
> 1000 nM,–,4800 nM,O=C1NCCN1CCN1CCN(C(=O)c2ccccc2)CC1,6%,–,–,> 8.2 µmol/kg,> 132 µmol/kg,–

# The remaining lines, values behind:
Compound,IC50 [1],IC50 [2],IC50 [4],Reduction [3],Change [5],Change [6],"ED50 [7, 9]",ED50 [8],ED50 [7]
O=C1NCCN1CCN1CCN([C@H]2C[C@H](c3ccccc3)c3ccccc32)CC1,–,–,–,-7%,-11%,0%,–,–,–
Fc1ccc(C2CC(N3CCN(CCN4CCN=C4S)CC3)c3ccccc32)cc1.O=C(O)/C=C\C(=O)O.O=C(O)/C=C\C(=O)O (configuration not stated),–,–,3.3 nM,-18%,–,–,0.43 µmol/kg,> 61 µmol/kg,–
Fc1ccc(C2CC(N3CCN(CCN4CCCN=C4S)CC3)c3cc(F)ccc32)cc1.O=C(O)/C=C\C(=O)O.O=C(O)/C=C\C(=O)O (configuration not stated),51 nM,–,7.5 nM,-13%,–,–,–,23 µmol/kg,–
Fc1ccc([C@@H]2C[C@@H](N3CCN(CCN4CCN=C4S)CC3)c3cc(F)ccc32)cc1.O=C(O)/C=C\C(=O)O.O=C(O)/C=C\C(=O)O,29 nM,13 nM,2.2 nM,-32%,–,–,–,–,–
O=C(O)/C=C\C(=O)O.O=C(O)/C=C\C(=O)O.O=C1NCCN1CCN1CCN([C@@H]2C[C@@H](c3ccccc3F)c3ccccc32)CC1,–,–,–,-3%,-18%,13%,17 µmol/kg,> 62 µmol/kg,–
O=C(O)/C=C\C(=O)O.O=C(O)/C=C\C(=O)O.O=C1NCCN1CCN1CCN(C2CC(c3ccccc3)c3ccccc32)CC1 (configuration not stated),1900 nM,–,12 nM,–,–,–,–,> 64 µmol/kg,26 µmol/kg
Cc1nc2sccn2c(=O)c1CCN1CCC(=C(c2ccc(F)cc2)c2ccc(F)cc2)CC1 [RITANSERIN],–,47 nM,–,10%,-95%,16%,1.2 µmol/kg,> 84 µmol/kg,–
O=C(O)/C=C\C(=O)O.O=C(O)/C=C\C(=O)O.O=C1NCCN1CCN1CCN([C@H]2C[C@H](c3ccccc3F)c3ccccc32)CC1,–,–,–,-8%,0%,3%,> 31 µmol/kg,> 62 µmol/kg,–
Cl.Cl.Oc1nc2ccccc2n1CCN1CCN(C2CC(c3ccc(F)cc3)c3ccc(F)cc32)CC1 (configuration not stated),25 nM,160 nM,9.4 nM,-15%,–,–,–,> 72 µmol/kg,–
Cl.Cl.OC1=NCCN1CCN1CCN(C2CC(c3ccc(Cl)cc3)c3ccccc32)CC1 (configuration not stated),800 nM,–,37 nM,3%,13%,15%,40 µmol/kg,> 80 µmol/kg,–
O=C(O)/C=C\C(=O)O.O=C(O)/C=C\C(=O)O.O=C1NCCCN1CCN1CCN(C2CC(c3ccc(F)cc3)c3ccc(F)cc32)CC1 (configuration not stated),–,–,11 nM,0%,–,–,–,> 59 µmol/kg,–
